Reference: ChEMBL document CHEMBL3885881, “DrugMatrix”

Species on record: Rattus norvegicus
Experiment: DrugMatrix - Regimen: Daily Repeat
Assay type: toxicity, organism-based, Sprague-Dawley
Design: regimen Daily Repeat, gender Male, age 6-8 weeks
Settings: in vivo, sc, 120 h, route subcutaneous, time 5 day, vehicle 100 % SALINE; for ABSOLUTE BASOPHIL / ABSOLUTE EOSINOPHIL / ABSOLUTE LYMPHOCYTE / ABSOLUTE MONOCYTE / ABSOLUTE SEGMENTED NEUTROPHIL / BASOPHIL / EOSINOPHIL / ERYTHROCYTE COUNT / HEMATOCRIT / HEMOGLOBIN / LEUKOCYTE COUNT / LYMPHOCYTE / MEAN CORPUSCULAR HEMOGLOBIN / MEAN CORPUSCULAR HEMOGLOBIN CONCENTRATION / MEAN CORPUSCULAR VOLUME / MONOCYTE / NEUTROPHIL / NUCLEATED RED BLOOD CELLS / PLATELET COUNT: tissue Blood; for ALANINE AMINOTRANSFERASE / ALBUMIN / ALKALINE PHOSPHATASE / ASPARTATE AMINOTRANSFERASE / BLOOD UREA NITROGEN / CARBON DIOXIDE / CHLORIDE / CHOLESTEROL / CREATINE PHOSPHOKINASE / CREATININE / GLUCOSE / LACTATE DEHYDROGENASE / LIPASE / PHOSPHORUS / POTASSIUM / SODIUM / TOTAL BILIRUBIN / TOTAL PROTEIN / URIC ACID: tissue Plasma

## CC(N)Cc1c[nH]c2ccc(OCc3cccs3)cc12 (centres undefined) [BW-723C86]
0 mg/kg, dose level Control
  ABSOLUTE BASOPHIL: 0 CELLS/uL
  ABSOLUTE EOSINOPHIL: 0 CELLS/uL
  ABSOLUTE LYMPHOCYTE: 5956.67 CELLS/uL
  ABSOLUTE MONOCYTE: 0 CELLS/uL
  ABSOLUTE SEGMENTED NEUTROPHIL: 510 CELLS/uL
  BASOPHIL: 0%
  EOSINOPHIL: 0%
  ERYTHROCYTE COUNT: 5.39 x10E6/uL
  HEMATOCRIT: 32.5%
  HEMOGLOBIN: 12.47 G/DL
  LEUKOCYTE COUNT: 6.47 x10E3/uL
  LYMPHOCYTE: 92%
  MEAN CORPUSCULAR HEMOGLOBIN: 23.13 pg
  MEAN CORPUSCULAR HEMOGLOBIN CONCENTRATION: 38.37 G/DL
  MEAN CORPUSCULAR VOLUME: 60.3 fL
  MONOCYTE: 0%
  NEUTROPHIL: 8%
  NUCLEATED RED BLOOD CELLS: 0.33 /100WBC
  PLATELET COUNT: 888 x10E3/uL
  ALANINE AMINOTRANSFERASE: 43.67 u/L
  ALBUMIN: 4.37 G/DL
  ALKALINE PHOSPHATASE: 356 u/L
  ASPARTATE AMINOTRANSFERASE: 74 u/L
  BLOOD UREA NITROGEN: 11 mg/dL
  CARBON DIOXIDE: 32.33 mmol/L
  CHLORIDE: 103.33 MEQ/L
  CHOLESTEROL: 70.67 mg/dL
  CREATINE PHOSPHOKINASE: 195.33 u/L
  CREATININE: 0.16 mg/dL
  GLUCOSE: 161.67 mg/dL
  LACTATE DEHYDROGENASE: 84 u/L
  LIPASE: 9 u/L
  PHOSPHORUS: 12.57 mg/dL
  POTASSIUM: 6.87 MEQ/L
  SODIUM: 147.6 MEQ/L
  TOTAL BILIRUBIN: 0.13 mg/dL
  TOTAL PROTEIN: 6.27 G/DL
  URIC ACID: 1.67 mg/dL
10 mg/kg, dose level Low
  ABSOLUTE BASOPHIL: 0 CELLS/uL
  ABSOLUTE EOSINOPHIL: 0 CELLS/uL
  ABSOLUTE LYMPHOCYTE: 5627 CELLS/uL
  ABSOLUTE MONOCYTE: 73.33 CELLS/uL
  ABSOLUTE SEGMENTED NEUTROPHIL: 866.33 CELLS/uL
  BASOPHIL: 0%
  EOSINOPHIL: 0%
  ERYTHROCYTE COUNT: 5.18 x10E6/uL
  HEMATOCRIT: 31.03%
  HEMOGLOBIN: 12 G/DL
  LEUKOCYTE COUNT: 6.57 x10E3/uL
  LYMPHOCYTE: 85.33%
  MEAN CORPUSCULAR HEMOGLOBIN: 23.2 pg
  MEAN CORPUSCULAR HEMOGLOBIN CONCENTRATION: 38.67 G/DL
  MEAN CORPUSCULAR VOLUME: 60 fL
  MONOCYTE: 1%
  NEUTROPHIL: 13.67%
  NUCLEATED RED BLOOD CELLS: 0.33 /100WBC
  PLATELET COUNT: 1156.33 x10E3/uL
  ALANINE AMINOTRANSFERASE: 53.33 u/L
  ALBUMIN: 4.03 G/DL
  ALKALINE PHOSPHATASE: 406.67 u/L
  ASPARTATE AMINOTRANSFERASE: 85.67 u/L
  BLOOD UREA NITROGEN: 14.67 mg/dL
  CARBON DIOXIDE: 33.33 mmol/L
  CHLORIDE: 103.33 MEQ/L
  CHOLESTEROL: 90.33 mg/dL
  CREATINE PHOSPHOKINASE: 200.33 u/L
  CREATININE: 0.18 mg/dL
  GLUCOSE: 150.33 mg/dL
  LACTATE DEHYDROGENASE: 93 u/L
  LIPASE: 8 u/L
  PHOSPHORUS: 13.1 mg/dL
  POTASSIUM: 7.02 MEQ/L
  SODIUM: 148.43 MEQ/L
  TOTAL BILIRUBIN: 0.1 mg/dL
  TOTAL PROTEIN: 6.43 G/DL
  URIC ACID: 1.67 mg/dL
50 mg/kg, dose level High
  ABSOLUTE BASOPHIL: 0 CELLS/uL
  ABSOLUTE EOSINOPHIL: 0 CELLS/uL
  ABSOLUTE LYMPHOCYTE: 7706.33 CELLS/uL
  ABSOLUTE MONOCYTE: 71.33 CELLS/uL
  ABSOLUTE SEGMENTED NEUTROPHIL: 3055.67 CELLS/uL
  BASOPHIL: 0%
  EOSINOPHIL: 0%
  ERYTHROCYTE COUNT: 5.21 x10E6/uL
  HEMATOCRIT: 30.4%
  HEMOGLOBIN: 11.63 G/DL
  LEUKOCYTE COUNT: 10.83 x10E3/uL
  LYMPHOCYTE: 71%
  MEAN CORPUSCULAR HEMOGLOBIN: 22.4 pg
  MEAN CORPUSCULAR HEMOGLOBIN CONCENTRATION: 38.3 G/DL
  MEAN CORPUSCULAR VOLUME: 58.4 fL
  MONOCYTE: 0.67%
  NEUTROPHIL: 28.33%
  NUCLEATED RED BLOOD CELLS: 0.33 /100WBC
  PLATELET COUNT: 1382.67 x10E3/uL
  ALANINE AMINOTRANSFERASE: 47.33 u/L
  ALBUMIN: 3.33 G/DL
  ALKALINE PHOSPHATASE: 343 u/L
  ASPARTATE AMINOTRANSFERASE: 83.67 u/L
  BLOOD UREA NITROGEN: 15 mg/dL
  CARBON DIOXIDE: 28 mmol/L
  CHLORIDE: 104.33 MEQ/L
  CHOLESTEROL: 78.33 mg/dL
  CREATINE PHOSPHOKINASE: 168.33 u/L
  CREATININE: 0.18 mg/dL
  GLUCOSE: 174 mg/dL
  LACTATE DEHYDROGENASE: 96.33 u/L
  LIPASE: 8.33 u/L
  PHOSPHORUS: 13.63 mg/dL
  POTASSIUM: 6.41 MEQ/L
  SODIUM: 147.13 MEQ/L
  TOTAL BILIRUBIN: 0.1 mg/dL
  TOTAL PROTEIN: 5.87 G/DL
  URIC ACID: 2.1 mg/dL
